The values that follow come from US7772228B2, “Method for treatment of bacterial infections with once or twice-weekly administered rifalazil” (priority 1998, dated 2010).

Data set [1] deals with M. tuberculosis strain Erdman. As to conditions: cited from earlier work; for reduction of bacterial load in lungs and spleens, comparison of drugs: 20 mg/kg, five times per week for four weeks.
Data set [2] is described as follows: Clinical trial 005, WBC, ANC and platelet counts in tuberculosis patients. Type of data set: in vivo, human. As to conditions: INH daily. Here is the method:
(§1) Definite diagnosis and evaluation of treatment efficacy requires direct examination of sputum for the presence of M. tuberculosis. The extent of M. tuberculosis infection is determined by number of bacteria able to form colonies and is expressed as colony forming units. When the number of colony forming units (CFU) is high, the infection is unhindered. When the CFU decreases, the number of active M. tuberculosis bacteria decreases. The CFU, typically expressed as Log10, have therefore important diagnostic and treatment evaluative value.
The four tables 17-20 show hematology data which are separated according to Groups 1-4. The group treatment corresponds to those seen in Table 16. […] In particular, the ANC value is considered to be a very meaningful safety index as it directly relates to a patient's ability to fight infection.
(§2) The overall clinical studies and conditions were similar to those described in Example 1. Due to ethical considerations, there were no placebo (control) patients in this study. […] Both latest regimens were experimental and performed under IND permit from FDA.

For data set [3], the system named is M. tuberculosis. In words: Clinical trial 005, change in Log10 CFU/mL of sputum of tuberculosis patients. Type of data set: in vivo, human. To be noted: INH 400 mg daily, N 6. The procedure:
Dosages of isoniazid and rifampin were adjusted to body weight of patients. […] When the patient's body weight was greater than 45 kg, isoniazid was administered as 600 mg/dose.
as §1
Dosages of isoniazid and rifampin depended on the patient's weight and were as above. The number of patients in each study group are presented as the N value.
as §2

Data set [4] concerns M. tuberculosis. To be noted: BACTEC, cited from earlier work; for MIC50 50% inhibition / MIC90 90% inhibition: thirty clinical isolates.
The conditions of data set [5]: in vivo; cited from earlier work.
Data set [6] has as its system extracellular M. tuberculosis. To be noted: cited from earlier work.
Data set [7] relates to M. tuberculosis. To be noted: 22 strains, agar dilution; cited from earlier work. Background: In agar dilution the substance is mixed into plates at graded concentrations.
The next data set deals with M. avium. As to conditions: 18 strains, agar dilution; cited from earlier work.
For data set [8], the system named is M. tuberculosis in human macrophages. To be noted: intracellular, cited from earlier work.
For another data set, the system named is Helicobacter pylori. Details: unit of the concentration uncertain. As to conditions: time-kill, broth medium, 0.31 (unit uncertain); cited from earlier work.

A word on the MIC90: it is an inhibitory concentration at the 90% level, which refers to growth in some studies and to a panel of isolates in others.

Structures are written as SMILES. In brackets after ≈: the same amount, converted by molar mass. Read-outs that look alike come from different tables or passages of the source.

As for `CC[C@@H](CO)NCCN[C@@H](CC)CO` [EMB, ethambutol], the “cell counts in lungs compared to late controls” value in data set [1] (four weeks treatment) is recorded as “reduced cell counts in lungs”.
In the case of `NNC(=O)c1ccncc1` [INH, isoniazid], in data set [2] (Day 4), the “ANC Max” value stood at 22.51 K/CU MM, the “ANC Mean (SD)” value turned out to be 7.62 K/CU MM, the “ANC Med” value amounted to 5.47 K/CU MM and the “ANC Min” value is given as 3.79 K/CU MM. In [2] (Day 4), the “Platelets Max” value was found to be 431.70 K/CU MM, the “Platelets Mean (SD)” value is listed as 309.38 K/CU MM, the “Platelets Med” value is listed as 305.56 K/CU MM and the “Platelets Min” value came out at 153.70 K/CU MM. For the same molecule, in data set [2] (Day 4), the “WBC Max” value is reported as 27.19 K/CU MM, the “WBC Mean (SD)” value was found to be 10.88 K/CU MM, the “WBC Med” value came to 8.81 K/CU MM and the “WBC Min” value is listed as 6.37 K/CU MM. In data set [2] (Day 8), the “ANC Max” value was found to be 9.32 K/CU MM, the “ANC Mean (SD)” value stood at 5.96 K/CU MM, the “ANC Med” value turned out to be 5.22 K/CU MM and the “ANC Min” value was 3.34 K/CU MM. Besides, in data set [2] (Day 8), the “Platelets Max” value amounted to 396.20 K/CU MM, the “Platelets Mean (SD)” value is 310.13 K/CU MM, the “Platelets Med” value came out at 357.20 K/CU MM and the “Platelets Min” value came to 185.60 K/CU MM. In data set [2] (Day 8), the “WBC Max” value is on record as 12.06 K/CU MM, the “WBC Mean (SD)” value came to 9.08 K/CU MM, the “WBC Med” value turned out to be 8.63 K/CU MM and the “WBC Min” value is given as 6.21 K/CU MM. For the same molecule, in [2] (Day 11), the “ANC Max” value came to 6.57 K/CU MM, the “ANC Mean (SD)” value turned out to be 5.29 K/CU MM, the “ANC Med” value is 5.06 K/CU MM and the “ANC Min” value is 4.17 K/CU MM. In addition, in data set [2] (Day 11), the “Platelets Max” value stood at 447.50 K/CU MM, the “Platelets Mean (SD)” value was 336.10 K/CU MM, the “Platelets Med” value is 354.20 K/CU MM and the “Platelets Min” value was found to be 208.10 K/CU MM. Besides, in [2] (Day 11), the “WBC Max” value was 10.03 K/CU MM, the “WBC Mean (SD)” value is reported as 8.29 K/CU MM, the “WBC Med” value turned out to be 8.10 K/CU MM and the “WBC Min” value is recorded as 7.27 K/CU MM. In data set [2] (Day 15), the “ANC Max” value was determined as 8.84 K/CU MM, the “ANC Mean (SD)” value was 5.95 K/CU MM, the “ANC Med” value is 6.04 K/CU MM and the “ANC Min” value stood at 3.51 K/CU MM. In data set [2] (Day 15), the “Platelets Max” value is reported as 412.70 K/CU MM, the “Platelets Mean (SD)” value turned out to be 298.59 K/CU MM, the “Platelets Med” value was found to be 302.00 K/CU MM and the “Platelets Min” value was 184.60 K/CU MM. In data set [2] (Day 15), the “WBC Max” value was 12.40 K/CU MM, the “WBC Mean (SD)” value came to 9.23 K/CU MM, the “WBC Med” value worked out at 8.49 K/CU MM and the “WBC Min” value turned out to be 6.82 K/CU MM. Besides, in [2] (Day 28), the “ANC Max” value came out at 7.87 K/CU MM, the “ANC Mean (SD)” value was found to be 5.63 K/CU MM, the “ANC Med” value was 4.60 K/CU MM and the “ANC Min” value came out at 4.41 K/CU MM. For the same molecule, in data set [2] (Day 28), the “Platelets Max” value is listed as 398.80 K/CU MM, the “Platelets Mean (SD)” value is on record as 297.27 K/CU MM, the “Platelets Med” value was determined as 266.00 K/CU MM and the “Platelets Min” value was found to be 197.00 K/CU MM. In data set [2] (Day 28), the “WBC Max” value is 11.15 K/CU MM, the “WBC Mean (SD)” value was 8.31 K/CU MM, the “WBC Med” value turned out to be 7.06 K/CU MM and the “WBC Min” value was found to be 6.70 K/CU MM. For the same molecule, in data set [2] (Day 42), the “ANC Max” value is given as 7.2 K/CU MM, the “ANC Mean (SD)” value was 6.96 K/CU MM, the “ANC Med” value is 6.96 K/CU MM and the “ANC Min” value is 6.72 K/CU MM. In data set [2] (Day 42), the “Platelets Max” value is on record as 345.00 K/CU MM, the “Platelets Mean (SD)” value is 297.10 K/CU MM, the “Platelets Med” value is listed as 297.10 K/CU MM and the “Platelets Min” value was 249.20 K/CU MM. Moreover, in [2] (Day 42), the “WBC Max” value is listed as 9.23 K/CU MM, the “WBC Mean (SD)” value came out at 7.98 K/CU MM, the “WBC Med” value turned out to be 7.98 K/CU MM and the “WBC Min” value was determined as 6.73 K/CU MM. Moreover, in the data set with M. tuberculosis [3], the “Change from Sputum Baseline to Day 15, Max” value is −0.92 Log10 CFU/mL; the “Change from Sputum Baseline to Day 15, Mean (SD)” value is on record as −1.58 Log10 CFU/mL; the “Change from Sputum Baseline to Day 15, Med” value was −1.63 Log10 CFU/mL; the “Change from Sputum Baseline to Day 15, Min” value is on record as −2.23 Log10 CFU/mL. In data set [1] (four weeks treatment), the “cell counts in lungs compared to early controls” value is “significantly reduced cell counts in lungs” and the “cell counts in lungs compared to late controls” value is recorded as “reduced cell counts in lungs”.
As to `C[C@H]1COc2c(N3CCN(C)CC3)c(F)cc3c(=O)c(C(=O)O)cn1c23` [LEV], the “cell counts in lungs compared to late controls” value in data set [1] (four weeks treatment) is listed as “reduced cell counts in lungs”.
Consider `NC(=O)c1cnccn1` [PZA, pyrazinamide], for which the “CFUs in the spleen” value in [1] (rifalazil 20 mg/kg, PZA 150 mg/kg, four weeks) was “did not significantly reduce CFUs compared to controls”.
For the molecule `CO[C@H]1/C=C/O[C@@]2(C)Oc3c(C)c(O)c4c(c3C2=O)C2=NC3(CCN(CC(C)C)CC3)NC2=C(NC(=O)/C(C)=C\C=C\[C@H](C)[C@H](O)[C@@H](C)[C@@H](O)[C@@H](C)[C@H](OC(C)=O)[C@@H]1C)C4=O` [Rifabutin, rifabutin, reference compound], the “reduction of bacterial load in lungs and spleens, comparison of drugs” value in data set [1] is “No significant differences”. Also, the MIC in the data set on M. tuberculosis [4] (reference strain H37Rv) was 0.016 mg/L (≈ 0.0189 µM). For the same molecule, the MIC with M. tuberculosis [4] (reference strain Kurono) is 0.016 mg/L (≈ 0.0189 µM). In the data set with M. tuberculosis [4], the “MIC50 50% inhibition” value is 0.063 mg/L (≈ 0.0744 µM) and the “MIC90 90% inhibition” value was 8.0 mg/L (≈ 9.44 µM). In addition, in data set [5], the “adverse reactions at high doses” value is “generalized arthralgia and uveitis occurred”; the incidence of neutropenia result is “significantly greater than in patients treated with placebo”; the skin discoloration is listed as < 1%.
`CO[C@H]1/C=C/O[C@@]2(C)Oc3c(C)c(O)c4c(O)c(c(/C=N/N5CCN(C)CC5)c(O)c4c3C2=O)NC(=O)/C(C)=C\C=C\[C@H](C)[C@H](O)[C@@H](C)[C@@H](O)[C@@H](C)[C@H](OC(C)=O)[C@@H]1C` [Rifampin, rifampin, reference compound]: the MBC in [6] (strain Atencio) is 0.25 mg/L (≈ 0.304 µM); in data set [6] (strain Erdman), 0.5 mg/L (≈ 0.608 µM); in data set [6] (strain H37Rv), 0.5 mg/L (≈ 0.608 µM); in data set [8] (strain Atencio), 0.5 mg/L (≈ 0.608 µM); in [8] (strain Erdman), 0.5 mg/L (≈ 0.608 µM); in data set [8] (strain H37Rv) it was 1.0 mg/L (≈ 1.22 µM). Also, the MIC in data set [6] (strain Atencio) was 0.25 mg/L (≈ 0.304 µM); in data set [6] (strain Erdman), 0.12 mg/L (≈ 0.146 µM); in data set [6] (strain H37Rv) it was 0.12 mg/L (≈ 0.146 µM); in the data set with M. tuberculosis [4] (reference strain Kurono), 0.063 mg/L (≈ 0.0766 µM); in data set [8] (strain Atencio), 0.25 mg/L (≈ 0.304 µM); in data set [8] (strain Erdman) it was 0.12 mg/L (≈ 0.146 µM). The MIC in [8] (strain H37Rv) was 0.25 mg/L (≈ 0.304 µM). Also, the MIC90 in the data set on M. tuberculosis [7] and in the data set on M. avium was 100 mg/L (≈ 122 µM) in each case. Further, the “reduction of bacterial load in lungs and spleens, comparison of drugs” value in data set [1] is listed as “No significant differences”. In addition, in the data set with M. tuberculosis [4], the “MIC50 50% inhibition” value is 4.0 mg/L (≈ 4.86 µM). For the same molecule, the “MIC90 90% inhibition” value in the data set with M. tuberculosis [4] was >128.0 mg/L.
`CC1(C)S[C@@H]2[C@H](NC(=O)[C@H](N)c3ccc(O)cc3)C(=O)N2[C@H]1C(=O)O` [amoxicillin, reference compound]: the “decrease in CFU/mL after 24 hours” value in the data set with Helicobacter pylori is 1 log.
